Tests used:
[1] = system: Pseudomonas aeruginosa PAO1; assay: Antimicrobial spread-plate (CFU) killing assay, P. aeruginosa; format: cell-based
Procedure: (§1) To determine whether the above microbicidal concentrations exert a permeabilizing effect on fungal and bacterial membranes, the influx of the fluorescent nucleic acid-binding dye propidium iodide (PI) in cells incubated with the peptides was assessed. In cells, dye uptake reflects membrane permeabilization, as PI itself cannot permeate through an intact phospholipid bilayer. […] To select an antimicrobial but non-permeabilizing concentration of each peptide for further assays, we defined as a non-permeabilizing inhibitory concentration (NPIC) the antimicrobial inhibitory concentration (≤10% viable cells) that permeabilized ≤ 10% of cells incubated (90 min at 37 °C) in buffer solution.
(§2) Microbial susceptibility to the peptides was determined in a spread-plate assay as described previously. Briefly, cell suspensions (10^6 cells/mL) in Tris buffer (10 mM Tris-HCl, pH 7.4) were incubated for 90 min at 37 °C with 2-fold serial peptide dilutions. Peptide concentrations ranged from 0 to 2 μM. After incubation, the number of viable cells was determined by plating aliquots (100 μL) in duplicate on plates (SDA for C. albicans, TSA for P. aeruginosa, and M17G agarified medium for L. lactis) that had been dried for 30 min at room temperature in a laminar flow hood. Plates were incubated for 24–48 h at 30 °C (C. albicans and L. lactis) or 24 h at 37 °C (P. aeruginosa). Dilutions yielding 50–200 colonies were counted. Cell viability values, expressed as colony-forming units (CFUs), were calculated relative to the incubation without added peptides and represent the means ± standard deviation (SD) from duplicates of three independent experiments. For inhibition assays, unless otherwise noted, cell suspensions were preincubated (15 min at 37 °C) with the appropriate inhibitor prior to the addition of peptides, but the inhibitor was present throughout the incubation period with the peptide (90 min at 37 °C). Other specific experimental conditions are described as appropriate. In some experiments, the concentrations of human lactoferrin against C. albicans (5 μM), P. aeruginosa (1 μM), and L. lactis (0.065 μM) were used in the control assays. In various viability assays, BM2 peptide (0.25 μM), CCCP (50 μM), colistin (4 μg/mL), nystatin (50 μM), oligomycin A (16 μg/mL), piericidin A (32 μM), and TEA (10 mM) were used.

C. albicans cells [2] = assay: Oxygen consumption measurement (polarographic), C. albicans; format: cell-based, Candida albicans; conditions: after 30 min; defensins 2 x NPIC, human lactoferrin 20 μM, piericidin A 32 µM; preincubated 15 min at 37 °C; untreated cells 94% ± 2%; means ± SD, three experiments
Procedure: (§3) Oxygen consumption by C. albicans and P. aeruginosa cells was determined by polarographically using a biological oxygen monitor (dual digital-model 20; Rank Brothers Ltd., Cambridge, UK) at 25 °C. The apparatus consisted of a twin water-jacketed closed sample chamber, which enabled a control experiment to be conducted concurrently. The cells were grown to mid-log phase in SDB (C. albicans) or TSB (P. aeruginosa), washed twice in Tris buffer, and resuspended in the same buffer. Cell suspensions (approximately 10^7 cells/mL) were preincubated with defensins (2 x NPIC), human lactoferrin (20 μM), or piericidin A (32 μM) for 15 min at 37 °C. Oxygen consumption was recorded at 5-min intervals for a period of 30 min. Three independent experiments were performed, and the data are means ± SD.

P. aeruginosa cells = assay: Oxygen consumption measurement (polarographic), P. aeruginosa; format: cell-based, Pseudomonas aeruginosa; conditions: after 30 min; defensins 2 x NPIC, human lactoferrin 20 μM, piericidin A 32 µM; preincubated 15 min at 37 °C; untreated cells 83% ± 2%; means ± SD, three experiments
Procedure: as §3

[3] = system: Candida albicans ATCC 10231; assay: Antimicrobial spread-plate (CFU) killing assay, C. albicans; format: cell-based; conditions: for effect of high extracellular K+ on candidacidal activity: 50 mM KCl, defensins at NPIC, hLf 5 μM, BM2 0.25 μM, nystatin 50 μM; for effect of Tok1p inhibition (TEA) on candidacidal activity: preincubation 15 min at 37 °C with 10 mM TEA+
Procedure: as §1, §2

C. albicans cells [4] = assay: Extracellular potassium measurement (K+-efflux, ICP-MS); format: cell-based, Candida albicans
Procedure: Potassium measurements were performed via inductively coupled plasma mass spectrometry using an Agilent 7700x ICP-MS (Agilent Technologies, Santa Clara, CA, USA). C. albicans cells were cultured in SDB for 16–20 h at 30 °C. The cells were then subcultured in the same media to the mid-logarithmic growth phase and rapidly washed in sterile, deionized, double-distilled water. The cells (10^7 cells/mL) were immediately incubated with the peptides (NPIC) for 90 min at 37 °C. The tubes were centrifuged at 1100× g for 10 min and the supernatants were collected and stored at 4 °C until analysis. The percentage of cytosolic potassium released from cell suspensions treated with nystatin (50 μM) was determined in positive control assays. Total cellular K^+-content (100% value) was measured in the supernatant of cell suspensions previously treated with 0.5% (v/v) HClO4 alone, heated for 1 h at 95 °C, and centrifuged to remove cell debris. Results are expressed as the percentage (means ± SD) of K^+-release relative to the total cellular K^+-content from duplicates of at least three independent assays.

C. albicans cells [5] = assay: Total cellular ATP (BacTiter-Glo); format: cell-based, Candida albicans; conditions: defensins at NPIC, human lactoferrin 5 μM, BM2 peptide 0.25 μM; 10^6 cells/mL; BacTiter-Glo luminescence
Procedure: Total ATP was measured using the BacTiter-Glo^TM Microbial Cell Viability Assay (Promega Co., Madison, WI, USA) according to the manufacturer’s instructions. […] Aliquots (100 µL) were incubated (90 min at 37 °C) with human defensins (NPICs). Human lactoferrin (5 μM) or BM2 peptide (0.25 μM) was used as positive controls. One hundred microliters of the incubation mixture was transferred to an opaque 96-well plate, mixed with an equal volume of BacTiter-Glo^TM reagent, and incubated for 15 min in the dark. The reagent uses a thermostable luciferase to generate luminescence in an ATP-dependent manner. The emitted luminescence was detected using a Varioskan Flash multimode reader (Thermo Scientific, Waltham, MA, USA) with a 10 s shaking and 1 s integration time. A calibration curve was generated for each experiment with ATP standards ranging from 1 to 1000 nM. All assays were performed at least three times in duplicate.

C. albicans cells [6] = assay: Membrane potential monitoring with DiBAC4(3), flow cytometry; format: cell-based, Candida albicans; conditions: peptides at NPIC, hLf 5 μM, BM2 0.25 μM; DiBAC4(3) 1 µg/mL
Procedure: The membrane potential-sensitive probe DiBAC4(3) was used to monitor the transmembrane electrical potential of C. albicans cells as previously described with slight modifications. Briefly, cells were harvested from mid-log phase cultures via centrifugation and suspended in Tris buffer. The cell suspension was adjusted to 10^6 cells/mL and then incubated with DiBAC4(3) at a final concentration of 1 µg/mL for 30 min. Fluorescence was measured using a CytoFLEX S flow cytometer (Beckman Coulter) with excitation at 561 nm and emission at 690/50 nm. For each treatment, 5000 events were counted per experiment with an exposure time of 1000 ms. Results were analyzed using CytExpert 2.1 Acquisition software. As positive controls, human lactoferrin and BM2 peptide were used. Three independent experiments were performed and data are expressed as means ± SD.

## N#CC(C#N)=NNc1cccc(Cl)c1 [CCCP, carbonyl cyanide m-chlorophenylhydrazone, reference compound]
[1]; 50 µM CCCP, pH of 5.5 and 6.5
  viability of P. aeruginosa with CCCP alone, acidic extracellular pH: decreased
[1]; 50 µM CCCP, pH of 7.4, 7.7, and 8.0
  viability of P. aeruginosa with CCCP alone, alkaline pH: not significantly altered

## colistin (polymyxin E) [reference compound]
[1]; 50 mM KCl, defensins at NPIC, hLf 1 μM, colistin 4 μg/mL
  effect of high extracellular K+ on pseudomonacidal activity: no effect

## C/C=C(\C)[C@H](O)[C@H](C)/C=C(C)/C=C/C/C(C)=C/Cc1nc(OC)c(OC)c(O)c1C [piericidin A, reference compound]
C. albicans cells [2]
  oxygen consumption percentage of C. albicans: 20% ± 3%
P. aeruginosa cells
  O2 consumption of P. aeruginosa: 17% ± 3%

## D-NH2-RRRFWWFRRR-CONH2 [BM2 peptide, positive control, reference compound]
[3]
  effect of high extracellular K+ on candidacidal activity: significantly decreased
[3]; cells preincubated 15 min at 37 °C with 32 µM piericidin A, then peptides (NPIC) 90 min
  effect of piericidin A on candidacidal activity: significantly (p < 0.001) inhibited
[3]; preincubated 15 min at 37 °C with 16 μg/mL oligomycin A, peptides at NPIC
  effect of oligomycin A on candidacidal activity: significantly reduced
[3]; peptides at NPIC
  effect of Tok1p inhibition (TEA) on candidacidal activity: reduced
C. albicans cells [4]; peptides at NPIC / microbicidal concentrations, 10^7 cells/mL, 90 min at 37 °C, steady state compared with maximum intracellular K+ of untreated cells
  K^+-efflux pattern in C. albicans: partial K^+-efflux
C. albicans cells [5]
  increase in ATP levels compared to the untreated control: ~ 9 fold
C. albicans cells [6]
  transmembrane electrical potential (DiBAC4(3) fluorescence): increase in DiBAC4(3) fluorescence

## C[C@@H]1[C@H](O)[C@@H](C)/C=C/C=C/CC/C=C/C=C/C=C/C=C/C(O[C@H]2O[C@H](C)[C@@H](O)[C@H](N)[C@@H]2O)CC2O[C@](O)(CC(O)C(O)CCC(O)CC(O)CC(O)CC(=O)O[C@H]1C)CC(O)C2C(=O)O (stereo partly drawn) [nystatin, reference compound]
[3]
  effect of high extracellular K+ on candidacidal activity: no effect
[3]; peptides at NPIC
  effect of Tok1p inhibition (TEA) on candidacidal activity: not altered
C. albicans cells [4]; nystatin 50 μM, 90 min, 37 °C, relative to total cellular K+-content (100%), ICP-MS
  K^+-release from yeast cells: 70–85%

— article PMC11242853, “The Antimicrobial Activity of Human Defensins at Physiological Non-Permeabilizing Concentrations Is Caused by the Inhibition of the Plasma Membrane H^+-ATPases” (International Journal of Molecular Sciences, 2024)
